This is an account of results in patent publication US10894784B2, “Heteroarylbenzimidazole compounds” (BAYER PHARMA AKTIENGESELLSCHAFT, priority 2015, dated 2021).

The first assay deals with TBK1 (Homo sapiens (Human), UniProt Q9UHD2). The assay is described as follows: TBK1 low ATP kinase assay (in vitro assay 1). Particulars: TBK1 low ATP kinase assay IC50, in vitro assay 1. Type of assay: biochemical.
Sequence of TBK1 (Q9UHD2 whole entry): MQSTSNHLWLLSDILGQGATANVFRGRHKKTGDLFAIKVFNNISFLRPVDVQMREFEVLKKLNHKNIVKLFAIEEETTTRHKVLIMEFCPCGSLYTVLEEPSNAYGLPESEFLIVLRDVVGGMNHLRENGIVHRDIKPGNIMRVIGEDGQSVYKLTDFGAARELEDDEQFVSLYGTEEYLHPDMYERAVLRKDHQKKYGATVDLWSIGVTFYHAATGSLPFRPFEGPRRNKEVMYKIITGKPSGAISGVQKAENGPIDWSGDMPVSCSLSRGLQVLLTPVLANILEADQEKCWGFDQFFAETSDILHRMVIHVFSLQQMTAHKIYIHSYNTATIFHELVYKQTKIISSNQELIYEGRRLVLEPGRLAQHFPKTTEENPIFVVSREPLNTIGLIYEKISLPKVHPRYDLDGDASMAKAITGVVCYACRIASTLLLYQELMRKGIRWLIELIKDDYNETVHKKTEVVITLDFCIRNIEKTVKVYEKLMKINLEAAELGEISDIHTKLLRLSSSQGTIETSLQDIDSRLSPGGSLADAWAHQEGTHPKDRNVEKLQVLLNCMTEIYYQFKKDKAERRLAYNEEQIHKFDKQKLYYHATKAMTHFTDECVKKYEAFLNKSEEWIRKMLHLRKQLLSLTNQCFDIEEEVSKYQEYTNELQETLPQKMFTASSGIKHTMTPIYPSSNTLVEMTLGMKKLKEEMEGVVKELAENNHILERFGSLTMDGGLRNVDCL
In turn, `Cc1cc(-c2ccc3nc(Nc4cc(C(C)N5CCN(C(=O)CC(F)(F)F)CC5)ccn4)[nH]c3c2)ncn1` (single isomer, unassigned) [Example 30.03.01.A, 3,3,3-trifluoro-1-{4-[(1R or 1S)-1-(2-{[6-(6-methylpyrimidin-4-yl)-1H-benzimidazol-2-yl]amino}pyridin-4-yl)ethyl]piperazin-1-yl}propan-1-one] gave a half-inhibitory concentration (IC50) of 18 nM.

Still in this assay, the particulars now being: in vitro assay 1, read-out: TBK1 low ATP kinase assay IC50.
Take `COc1cnccc1-c1ccc2nc(Nc3cc(CN4CCN(C(=O)C(C)(C)C)CC4)ccn3)[nH]c2c1` [Example 04.06, 1-{4-[(2-{[6-(3-methoxypyridin-4-yl)-1H-benzimidazol-2-yl]amino}pyridin-4-yl)methyl]piperazin-1-yl}-2,2-dimethylpropan-1-one]: the half-maximal inhibitory concentration (IC50) is 30.2 nM.
On the same count and under the same terms, with `Cc1nccc(-c2ccc3nc(Nc4cc(C(C)N5CCN(C(=O)C6CCC6)CC5)ccn4)[nH]c3c2)n1` (single isomer, unassigned) [Example 24.05.02.B, cyclobutyl{4-[(1S or 1R)-1-(2-{[6-(2-methylpyrimidin-4-yl)-1H-benzimidazol-2-yl]amino}pyridin-4-yl)ethyl]piperazin-1-yl}methanone] the figure was 55.1 nM.
Same read-out and setting: with `Cc1cc(-c2ccc3nc(Nc4cc(CN5CCN(C(=O)OC(C)(C)C)CC5)ccn4)[nH]c3c2)ccn1` [Example 01.01, tert-butyl 4-[(2-{[6-(2-methylpyridin-4-yl)-1H-benzimidazol-2-yl]amino}pyridin-4-yl)methyl]piperazine-1-carboxylate] the figure was 150 nM; with `CC(O)c1cc(-c2ccc3nc(Nc4cc(CN5CCN(C(=O)OC(C)(C)C)CC5)ccn4)[nH]c3c2)ncn1` (racemic) [Example 97.01, (rac)-tert-butyl 4-({2-[(6-{6-[1-hydroxyethyl]pyrimidin-4-yl}-1H-benzimidazol-2-yl)amino]pyridin-4-yl}methyl)piperazine-1-carboxylate], 21 nM; with `Cc1noc(-c2ccc3nc(Nc4cc(CN5CCN(C(=O)OC(C)(C)C)CC5)ccn4)[nH]c3c2)n1` [Example 16.01.01, tert-butyl 4-[(2-{[6-(3-methyl-1,2,4-oxadiazol-5-yl)-1H-benzimidazol-2-yl]amino}pyridin-4-yl)methyl]piperazine-1-carboxylate], 230 nM.
Same read-out and setting: with `COc1cnc(C)cc1-c1ccc2nc(Nc3cc(CN4CCN(C(=O)CC5CC5)CC4)ccn3)[nH]c2c1` [Example 07.04, 2-cyclopropyl-1-{4-[(2-{[6-(5-methoxy-2-methylpyridin-4-yl)-1H-benzimidazol-2-yl]amino}pyridin-4-yl)methyl]piperazin-1-yl}ethanone] the figure was 444 nM; with `CC(c1ccnc(Nc2nc3ccc(-c4cc(C(F)(F)F)ncn4)cc3[nH]2)c1)N1CCN(C(=O)CC(F)(F)F)CC1` (single isomer, unassigned) [Example 29.02.01.A, 3,3,3-trifluoro-1-(4-{(1R or 1S)-1-[2-({6-[6-(trifluoromethyl)pyrimidin-4-yl]-1H-benzimidazol-2-yl}amino)pyridin-4-yl]ethyl}piperazin-1-yl)propan-1-one], 92.3 nM.
Regarding `O=C(CC(F)(F)F)N1CCN(Cc2ccnc(Nc3nc4ccc(-c5cc(C6CCOCC6)ncn5)cc4[nH]3)c2)CC1` [Example 199.02, 3,3,3-trifluoro-1-(4-{[2-({6-[6-(tetrahydro-2H-pyran-4-yl)pyrimidin-4-yl]-1H-benzimidazol-2-yl}amino)pyridin-4-yl]methyl}piperazin-1-yl)propan-1-one], the IC50 was found to be 41.9 nM.
Same read-out and setting: with `COc1c(-c2ccc3nc(Nc4cc(C(C)N5CCN(C(=O)OC(C)(C)C)CC5)ccn4)[nH]c3c2)ncnc1N(C)C` (single isomer, unassigned) [Example 107.02.01, tert-butyl 4-{(1R or 1S)-1-[2-({6-[6-(dimethylamino)-5-methoxypyrimidin-4-yl]-1H-benzimidazol-2-yl}amino)pyridin-4-yl]ethyl}piperazine-1-carboxylate] the figure was 21 nM.
Same read-out and setting: with `O=C(C1CC1)N1CCN(Cc2ccnc(Nc3nc4ccc(-c5cncnc5)cc4[nH]3)c2)CC1` [Example 45.01.03, cyclopropyl{4-[(2-{[6-(pyrimidin-5-yl)-1H-benzimidazol-2-yl]amino}pyridin-4-yl)methyl]piperazin-1-yl}methanone] the figure was 205 nM; with `COc1c(-c2ccc3nc(Nc4cc(CN5CCN(C(=O)C6CC6)CC5)ccn4)[nH]c3c2)ncnc1N(C)C` [Example 107.01.02, cyclopropyl(4-{[2-({6-[6-(dimethylamino)-5-methoxypyrimidin-4-yl]-1H-benzimidazol-2-yl}amino)pyridin-4-yl]methyl}piperazin-1-yl)methanone], 16 nM; with `Cc1noc(C)c1-c1cc(-c2ccc3nc(Nc4cc(CN5CCN(C(=O)CC(F)(F)F)CC5)ccn4)[nH]c3c2)ncn1` [Example 92.02, 1-(4-{[2-({6-[6-(3,5-dimethyl-1,2-oxazol-4-yl)pyrimidin-4-yl]-1H-benzimidazol-2-yl}amino)pyridin-4-yl]methyl}piperazin-1-yl)-3,3,3-trifluoropropan-1-one], 450 nM.
On the same count and under the same terms, with `CN(CC1CC1)c1cc(-c2ccc3nc(Nc4cc(CN5CCN(C(=O)OC(C)(C)C)CC5)ccn4)[nH]c3c2)ncn1` [Example 141.01, tert-butyl 4-({2-[(6-{6-[(cyclopropylmethyl)(methyl)amino]pyrimidin-4-yl}-1H-benzimidazol-2-yl)amino]pyridin-4-yl}methyl)piperazin-1-carboxylate] the figure was 43 nM; with `CC(C)(C)OC(=O)N1CCN(Cc2ccnc(Nc3nc4ccc(-c5ccnc(OCC6CC6)n5)cc4[nH]3)c2)CC1` [Example 62.01.01, tert-butyl 4-{[2-({6-[2-(cyclopropylmethoxy)pyrimidin-4-yl]-1H-benzimidazol-2-yl}amino)pyridin-4-yl]methyl}piperazine-1-carboxylate], 57.3 nM; with `Cc1nccc(-c2ccc3nc(Nc4cc(CN5CCN(C(=O)OC(C)(C)C)CC5)ccn4)[nH]c3c2)c1Cl` [Example 130.01, tert-butyl 4-[(2-{[6-(3-chloro-2-methylpyridin-4-yl)-1H-benzimidazol-2-yl]amino}pyridin-4-yl)methyl]piperazine-1-carboxylate], 890 nM.
With `COCc1cc(-c2ccc3nc(Nc4cc(C(C)N5CCN(C(=O)CC(F)(F)F)CC5)ccn4)[nH]c3c2Cl)ncn1` (single isomer, unassigned) [Example 99.01, 1-(4-{(1R or 1S)-1-[2-({7-chloro-6-[6-(methoxymethyl)pyrimidin-4-yl]-1H-benzimidazol-2-yl}amino)pyridin-4-yl]ethyl}piperazin-1-yl)-3,3,3-trifluoropropan-1-one], the 50% inhibitory concentration (IC50) was found to be 33 nM.
Still for that read-out and setting: with `COc1cncnc1-c1ccc2nc(Nc3cc(C(C)N4CCN(C(=O)C5CC5)CC4)ccn3)[nH]c2c1` (racemic) [Example 35.02.03, (rac)-cyclopropyl{4-[1-(2-{[6-(5-methoxypyrimidin-4-yl)-1H-benzimidazol-2-yl]amino}pyridin-4-yl)ethyl]piperazin-1-yl}methanone] the figure was 6.29 nM; with `COc1cc(-c2ccc3nc(Nc4cc(C(C)N5CCN(C(=O)CC(F)(F)F)CC5)ccn4)[nH]c3c2)ncn1` (single isomer, unassigned) [Example 34.03.01.A, 3,3,3-trifluoro-1-{4-[(1R or 1S)-1-(2-{[6-(6-methoxypyrimidin-4-yl)-1H-benzimidazol-2-yl]amino}pyridin-4-yl)ethyl]piperazin-1-yl}propan-1-one], 12.1 nM.
Still for that read-out and setting: with `COc1cncnc1-c1ccc2nc(Nc3cc(C(C)N4CCN(C(=O)C5CCC5)CC4)ccn3)[nH]c2c1` (single isomer, unassigned) [Example 35.03.04.B, cyclobutyl{4-[(1R or 1S)-1-(2-{[6-(5-methoxypyrimidin-4-yl)-1H-benzimidazol-2-yl]amino}pyridin-4-yl)ethyl]piperazin-1-yl}methanone] the figure was 34.5 nM.
`CC(c1ccnc(Nc2nc3ccc(-c4cnn(C[C@@H]5CC5(Cl)Cl)c4)cc3[nH]2)c1)N1CCN(C(=O)CC(F)(F)F)CC1` (single isomer, unassigned) [Example 170.02, 1-{4-[(1R or 1S)-1-(2-{[6-(1-{[(1RS)-2,2-dichlorocyclopropyl]methyl}-1H-pyrazol-4-yl)-1H-benzimidazol-2-yl]amino}pyridin-4-yl)ethyl]piperazin-1-yl}-3,3,3-trifluoropropan-1-one]: the 50% inhibitory concentration (IC50) worked out at 5.21 nM.
The same measure, in the same setting: with `COc1ccc(-c2ccc3nc(Nc4cc(CN5CCN(C(=O)CC(F)(F)F)CC5)ccn4)[nH]c3c2)cn1` [Example 13.03, 3,3,3-trifluoro-1-{4-[(2-{[6-(6-methoxypyridin-3-yl)-1H-benzimidazol-2-yl]amino}pyridin-4-yl)methyl]piperazin-1-yl}propan-1-one] the figure was 190 nM; with `CNc1cc(-c2ccc3nc(Nc4cc(CN5CCN(C(=O)OC(C)(C)C)CC5)ccn4)[nH]c3c2)ncn1` [Example 150.01, tert-butyl 4-{[2-({6-[6-(methylamino)pyrimidin-4-yl]-1H-benzimidazol-2-yl}amino)pyridin-4-yl]methyl}piperazine-1-carboxylate], 15 nM.
Consider `COc1cncc(-c2ccc3nc(Nc4cc(CN5CCN(C(=O)C6CC6)CC5)ccn4)[nH]c3c2)n1` [Example 48.01, cyclopropyl{4-[(2-{[6-(6-methoxypyrazin-2-yl)-1H-benzimidazol-2-yl]amino}pyridin-4-yl)methyl]piperazin-1-yl}methanone], for which the IC50 stood at 193 nM.
On the same count and under the same terms, with `CC(C)(C)OC(=O)N1CCN(Cc2ccnc(Nc3nc4ccc(-c5cc(NCCO)ncn5)cc4[nH]3)c2)CC1` [Example 81.01, tert-butyl 4-({2-[(6-{6-[(2-hydroxyethyl)amino]pyrimidin-4-yl}-1H-benzimidazol-2-yl)amino]pyridin-4-yl}methyl)piperazine-1-carboxylate] the figure was 13 nM; with `COc1cnc(C)cc1-c1ccc2nc(Nc3cc(CN4CCN(C(=O)CC(F)(F)F)CC4)ccn3)[nH]c2c1` [Example 07.02, 3,3,3-trifluoro-1-{4-[(2-{[6-(5-methoxy-2-methylpyridin-4-yl)-1H-benzimidazol-2-yl]amino}pyridin-4-yl)methyl]piperazin-1-yl}propan-1-one], 277 nM.
